Data on five compounds can be found in ChEMBL document CHEMBL1157260, “Cytotoxic diterpenes from Cassipourea madagascariensis from the Madagascar rainforest” (J Nat Prod, 2006).

The test deals with A2780. The experiment in a line: Cytotoxicity against human A2780 cells by clonogenic assay. The format is functional, cell-based.

Values after ≈ are worked out from the molar mass of the structure shown.

Regarding `C=C(CO)[C@@H]1CC[C@]2(C)CC[C@]3(C)[C@H](CC[C@@H]4[C@@]5(C)CCC(=O)C(C)(C)[C@@H]5CC[C@]43C)[C@@H]12`, the midpoint of inhibition, the IC50, lay at 16.4 µg/mL (≈ 37.2 µM).
The figure for `C=C(CO)[C@@H]1CC[C@]2(C)CC[C@]3(C)[C@H](CC[C@@H]4[C@@]5(C)CC[C@H](O)C(C)(C)[C@@H]5CC[C@]43C)[C@@H]12` is 12.2 µg/mL (≈ 27.6 µM); for `C/C(=C\CO)CCCC(C)CC[C@H]1[C@@H](C)CCCC1(C)C` (stereo not given in full) [CASSIPOUROL] it is 2.4 µg/mL (≈ 8.15 µM); for `CC(=O)OC/C=C(\C)CCCC(C)CC[C@H]1[C@@H](C)CCCC1(C)C` (stereo not given in full) [CASSIPOURYL ACETATE] it is 2.8 µg/mL.
Regarding `COc1cc(O)c2c(=O)c(OC)c(-c3cc(OC)c(OC)c(OC)c3)oc2c1` [COMBRETOL], the IC50 (usually the concentration that inhibits the measured activity by half) was determined as 8.7 µg/mL (≈ 22.4 µM).
